Data as given in patent publication EP4818187A1, “COMPOUND AND USE THEREOF” (Ganzhou Hemay Pharmaceutical, Co., Ltd, priority 2023, dated 2025).

Tests used:
[1] = system: Fadu (human pharyngeal squamous cell carcinoma); test: In vitro inhibitory effect against human tumor cells (MTT); format: cell-based; details: 72 h, 3 days
Procedure: (§1) Cells were cultured with 5% CO2 at 37°C and saturated humidity until they reached a logarithmic growth phase (usually adherent cells were nearly fully confluent). After removing adherent cells by trypsin/EDTA digestion, the cells were collected for subsequent experiments.
(§2) The cells were inoculated into a 96-well cell culture plate (hereinafter referred to as the 96-well plate) based on the cell count shown in Table 2, cultured overnight to achieve cell adherence, and then, after different concentrations of the test compound were added, further cultured for a total of 3 days. Finally, the total cell protein in the assay wells was assayed by SRB, or the cell viability was assessed by MTT:
(§3) 2.2 Assaying cell viability by MTT: the modification is based on the method in the literature (J. Carmichael, W. DeGraff, A. Gazdar et al., Evaluation of a tetrazolium-based semiautomated colorimetric assay: assessment of chemosensitivity testing. Cancer Research. 1987, 47: 936-942). Specific method: For well-adherent cells: the medium was pipetted out, 100 µL of a basal medium containing 0.5 mg/mL MTT (medium free of fetal bovine serum (FBS) and other additives) was added to each well, and culture was continued for additional 3 h. The MTT-containing basal medium was pipetted out, and 100 µL of DMSO was added to each well to dissolve formazan, followed by assay at a wavelength of 490 nm.
(§4) For poorly-adherent cells: MTT solution was directly added to a concentration of 0.5 mg/mL, culture was continued for additional 3 h, and an equal volume of triple solvent was added to the system to dissolve formazan, followed by assay at a wavelength of 570 nm.
(§5) 2.3: 1-2 mg of β-glucuronidase was weighed, and dissolved in PBS to prepare 2 mg/mL stock solution. Prior to use, the stock solution was diluted with a complete medium to prepare 12.5 µg/mL enzyme working solution. For assay wells requiring the enzyme, 80 µL of the enzyme working solution was added, with the β-glucuronidase at a concentration of 1 µg/well; and for assay wells not requiring the enzyme, 80 µL of the complete medium was added.
(§6) 1-3 mg of the test compound was weighed, and dissolved in DMSO to prepare 20 mM stock solution. The stock solution was diluted in a 3-fold gradient with DMSO, then diluted 100-fold with RPMI1640 basal medium to obtain 10× working solutions, with a total of 8 concentrations. 20 µL of the 10× working solutions were add to the assay wells, with the final volume of each well of 200 µL, and with the DMSO at a concentration of 0.1%.
(§7) 2.4 Calculation of inhibitory activity of compound: the experiment includes a compound test group, a compound-free positive solvent control group (PC), and a negative solvent control group (NC) without cells and the compound. Inhibition rate = [1−(testvalue−NCmean)/(PCmean−NCmean)] × 100% [formula]
(§8) The mean and SD of the inhibition rate were obtained from replicate assay wells. A curve was plotted with the compound concentrations distributed in a logarithmic form as the abscissa and with the mean inhibition rates as the ordinate, and was fitted with a 4-parameter logistic equation. The compound concentration corresponding to 50% inhibition rate on the curve is the IC50 value. Table 2: Culture medium formulation and cell inoculation concentration for human tumor cell lines

[2] = system: HCT116 (human colorectal cancer); test: as above; format: cell-based; details: HCT-116, 72 h, 3 days
Procedure: as §1, §2, §3, §4, §5, §6, §7, §8

[3] = system: NCI-H1975 (human non-small cell lung cancer); test: as above; format: cell-based; details: NCI-H1975, 72 h, 3 days
Procedure: as §1, §2, §3, §4, §5, §6, §7, §8

[4] = system: SK-OV-3 (human ovarian cancer); test: as above; format: cell-based; details: SK-OV-3, 72 h, SK-OV-3, MTT, 3 days
Procedure: as §1, §2, §3, §4, §5, §6, §7, §8

[5] = system: 22RV1 (human prostate cancer); test: In vitro inhibitory effect against human tumor cells (SRB); format: cell-based; details: 22Rv1, 72 h, 22RV1, SRB, 3 days
Procedure: as §1, §2
(§9) 2.1 Assaying total cell protein by SRB: the modification is based on the method in the literature (V. Vichai and K. Kirtikara. Sulforhodamine B colorimetric assay for cytotoxicity screening. Nature Protocols. 2006, 1: 1112-1116). Specific method: the culture medium was pipetted out from the wells, the cells were fixed with 10% trichloroacetic acid for more than 1 h, and trichloroacetic acid was removed; the cells were washed with H2O, and stained with 0.4% SRB for 15-30 min; after excess SRB was removed, the cells were washed with 1% acetic acid; 100 µl of 10 mM tris(trihydroxymethylaminomethane) was added to dissolve the protein-bound SRB, followed by assay at a wavelength of 570 nm.
as §5, §6, §7, §8

[6] = system: A375 (human malignant melanoma); test: as above; format: cell-based; details: A-375, 72 h, 3 days
Procedure: as §1, §2, §9, §5, §6, §7, §8

[7] = system: HepG2 (human liver cancer cell); test: as above; format: cell-based; details: HepG2, 72 h, 3 days
Procedure: as §1, §2, §9, §5, §6, §7, §8

[8] = system: BxPC-3 (human pancreatic cancer in situ); test: In vitro inhibitory effect against human tumor cells (MTT or SRB); format: cell-based; details: BXPC-3, 72 h, BxPC-3, test method printed MTT (head: SRB), 3 days
Procedure: as §1, §2, §9, §3, §4, §5, §6, §7, §8

[9] = system: human ovarian cancer SK-OV-3; test: Biological Example 5: in vivo xenograft model of human ovarian cancer SK-OV-3; design: species or system Balb/c-nu nude mice; details: SK-OV-3 xenograft, nude mice, 0.8 mg/kg i.v. qw×3
[10] = system: human non-small cell lung cancer NCI-H1975; test: Biological Example 7: in vivo xenograft model of human non-small cell lung cancer NCI-H1975; design: species or system Balb/c-nu nude mice; details: nude mice; for Final body weight change (%) / Maximum body weight change (%) / Relative volume RTV (x±S.D.) / T/C (%) / Tumor inhibition rate (%) / Tumor weight (g, x±S.D.): 0.8 mg/kg i.v. qw×3; for Body weight (g, x±S.D.) End: 0.8 mg/kg i.v. qw×3, End; for Body weight (g, x±S.D.) Start: 0.8 mg/kg i.v. qw×3, Start
[11] = system: human non-small cell lung cancer NCI-H1975; test: Biological Example 10: in vivo xenograft model of human non-small cell lung cancer NCI-H1975; design: species or system Balb/c-nu nude mice; details: nude mice
[12] = With addition of βGU (1 µg/well)

| SMILES | IC50 [1, 12] | IC50 ([1]; βGU-free) | IC50 [2, 12] | IC50 ([2]; βGU-free) | IC50 [3, 12] | IC50 ([3]; βGU-free) | IC50 [4, 12] | IC50 ([4]; βGU-free) | IC50 [5, 12] | IC50 ([5]; βGU-free) | IC50 [6, 12] | IC50 ([6]; βGU-free) | IC50 [7, 12] | IC50 ([7]; βGU-free) | IC50 [8, 12] | IC50 ([8]; βGU-free) | Final body weight change (%) [9] | Maximum body weight change (%) [9] | Relative volume RTV (x±S.D.) [9] | T/C (%) [9] | also measured |
| --- | --- | --- | --- | --- | --- | --- | --- | --- | --- | --- | --- | --- | --- | --- | --- | --- | --- | --- | --- | --- | --- |
| CC[C@H](C)[C@@H]([C@@H](CC(=O)N1CCC[C@H]1[C@H](OC)[C@@H](C)C(=O)N[C@H](C)[C@@H](O)c1ccccc1)OC)N(C)C(=O)[C@@H](NC(=O)[C@H](C(C)C)[N+](C)(C)Cc1ccc(O[C@@H]2O[C@H](C(=O)[O-])[C@@H](O)[C@H](O)[C@H]2O)cc1OCc1cn(CCOCCC(=O)Nc2ccc(-c3ccc(/N=N/c4ccc5c(S(=O)(=O)[O-])cc(S(=O)(=O)[O-])c(N)c5c4O)c(C)c3)cc2C)nn1)C(C)C.[Na+].[Na+] [Example compound 9] | 0.35 nM | 25 nM | 2.9 nM | 69 nM | 4.7 nM | 69 nM | 2.4 nM | 65 nM | 3.8 nM | 86 nM | 2.7 nM | 27 nM | 3.8 nM | 88 nM | 0.86 nM | 28 nM | 5.3% | 5.3, d21% | 0.05±0.03 | 0.4% | Tumor inhibition rate (%) [9]: 99.9%; Tumor weight (g, x±S.D.) [9]: 0.002 ± 0.001 g; Body weight (g, x±S.D.) End [9]: 25.8 ± 0.7 g; Body weight (g, x±S.D.) Start [9]: 24.5 ± 0.6 g; Final body weight change (%) [10]: 8.8%; Maximum body weight change (%) [10]: 8.8, d21%; Relative volume RTV (x±S.D.) [10]: 0.45±0.30; T/C (%) [10]: 3.2%; Tumor inhibition rate (%) [10]: 97.7%; Tumor weight (g, x±S.D.) [10]: 0.041 ± 0.051 g; Body weight (g, x±S.D.) End [10]: 28.3 ± 2.9 g; Body weight (g, x±S.D.) Start [10]: 26.1 ± 2.8 g; Final body weight change (%) ([11]; 0.4 mg/kg i.v. qw×2): 4.8%; Maximum body weight change (%) ([11]; 0.4 mg/kg i.v. qw×2): 4.8, d28%; Relative volume RTV (x±S.D.) ([11]; 0.4 mg/kg i.v. qw×2): 0.38±0.05; T/C (%) ([11]; 0.4 mg/kg i.v. qw×2): 7.7%; Tumor inhibition rate (%) ([11]; 0.4 mg/kg i.v. qw×2): 93.4%; Tumor weight (g, x±S.D.) ([11]; 0.4 mg/kg i.v. qw×2): 0.073 ± 0.016 g; Body weight (g, x±S.D.) End 24d ([11]; 0.4 mg/kg i.v. qw×2, End 24d): 23.5 ± 0.6 g; Body weight (g, x±S.D.) Start ([11]; 0.4 mg/kg i.v. qw×2, Start): 22.5 ± 1.4 g |
| CC[C@H](C)[C@@H]([C@@H](CC(=O)N1CCC[C@H]1[C@H](OC)[C@@H](C)C(=O)N[C@H](C)[C@@H](O)c1ccccc1)OC)N(C)C(=O)[C@@H](NC(=O)[C@H](C(C)C)[N+](C)(CC)Cc1ccc(O[C@@H]2O[C@H](C(=O)[O-])[C@@H](O)[C@H](O)[C@H]2O)cc1OCc1cn(CCCOCC(=O)Nc2ccc(-c3ccc(/N=N/c4ccc5c(S(=O)(=O)[O-])cc(S(=O)(=O)[O-])c(N)c5c4O)c(C)c3)cc2C)nn1)C(C)C.[Na+].[Na+] (stereo partly drawn) [Example compound 11] | 0.61 nM | 21 nM | 1.1 nM | 55 nM | 1.7 nM | 64 nM | 1.7 nM | 77 nM | 2.2 nM | 63 nM | 1.6 nM | 45 nM | 3 nM | 66 nM | 0.4 nM | 15 nM | 5.7% | 5.7, d21% | 0.19±0.23 | 1.7% | Tumor inhibition rate (%) [9]: 99.3%; Tumor weight (g, x±S.D.) [9]: 0.011 ± 0.013 g; Body weight (g, x±S.D.) End [9]: 25.7 ± 0.8 g; Body weight (g, x±S.D.) Start [9]: 24.4 ± 0.9 g; Final body weight change (%) [10]: 6.7%; Maximum body weight change (%) [10]: 6.7, d21%; Relative volume RTV (x±S.D.) [10]: 0.74±0.51; T/C (%) [10]: 5.2%; Tumor inhibition rate (%) [10]: 96.6%; Tumor weight (g, x±S.D.) [10]: 0.061 ± 0.049 g; Body weight (g, x±S.D.) End [10]: 27.0 ± 2.2 g; Body weight (g, x±S.D.) Start [10]: 25.3 ± 1.6 g |
